Drawing on patent US6831199B1, “Pyrimidine compounds and derivatives thereof” (G. D. Searle & Co., priority 1995, dated 2004), this text covers IC50 for 21 compounds.

Structures can show the parent of a compound that is named as a salt.

Assay [1] deals with T1, Human vitronectin receptor (αvβ3) (Homo sapiens, UniProt P05106+P06756).
T1 construct: Human vitronectin receptor (αvβ3) was purified from human placenta; from tissue; host or cells: human placenta
Briefly: Vitronectin adhesion assay (solid phase receptor assay, competition with biotinylated vitronectin). The assay is classed as binding. As to conditions: read-out: AvB3 IC50. Summed up:
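Purified human αvβ3 coated overnight at 4 °C in TBS with 1.0 mM Ca++, Mg++, Mn++, pH 7.4; compounds (top final 1.0×10^−4 M) competed with 1 nM biotinylated vitronectin for 2 h at room temperature. Bound ligand detected by HRP anti-biotin/OPD at A450; values normalized to no-competitor controls, four-parameter curve fit.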

The target of assay [2] is T2, Human fibrinogen receptor (αIIbβ3) (Homo sapiens, UniProt P05106+P08514).
T2 construct: Human fibrinogen receptor (αIIbβ3) was purified from outdated platelets; from tissue; host or cells: outdated human platelets
The experiment in a line: Purified IIb/IIIa receptor assay (solid phase receptor assay, competition with biotinylated vitronectin). The assay is classed as binding. As to conditions: read-out: IIb/IIIa IC50. Summed up:
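Competition format: 1 nM biotinylated vitronectin plus test compound (highest 1.0×10^−4 M), 2 h at room temperature on wells coated with platelet-derived αIIbβ3. Buffer was TBS containing 1.0 mM Ca, Mg, Mn, pH 7.4. HRP anti-biotin readout at 450 nm; normalized to maximum binding, four-parameter curve fit.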

Another assay relates to platelet rich plasma. The experiment in a line: Human platelet rich plasma assay (ADP induced platelet aggregation). The assay is classed as cell-based. As to conditions: Homo sapiens, Platelet, ADP induced platelet aggregation in human platelet rich plasma; read-out: Human PRP. The protocol: Human Platelet Rich Plasma Assays
Healthy aspirin free donors were selected from a pool of volunteers. The harvesting of platelet rich plasma and subsequent ADP induced platelet aggregation assays were performed as described in Zucker, M. B., “Platelet Aggregation Measured by the Photometric Method”, Methods in Enzymology 169(1989):117-133. Standard venipuncture techniques using a butterfly allowed the withdrawal of 45 mL of whole blood into a 60 mL syringe containing 5 mL of 3.8% trisodium citrate. Following thorough mixing in the syringe, the anti-coagulated whole blood was transferred to a 50 mL conical polyethylene tube. The blood was centrifuged at room temperature for 12 minutes at 200×g to sediment non-platelet cells. Platelet rich plasma was removed to a polyethylene tube and stored at room temperature until used. Platelet poor plasma was obtained from a second centrifugation of the remaining blood at 2000×g for 15 minutes. Platelet counts are typically 300,000 to 500,000 per microliter. Platelet rich plasma (0.45 mL) was aliquoted into siliconized cuvettes and stirred (1100 rpm) at 37° C. for 1 minute prior to adding 50 uL of pre-diluted test compound. After 1 minute of mixing, aggregation was initiated by the addition of 50 uL of 200 uM ADP. Aggregation was recorded for 3 minutes in a Payton dual channel aggregometer (Payton Scientific, Buffalo, N.Y.). The percent inhibition of maximal response (saline control) for a series of test compound dilutions was used to determine a dose response curve.

Consider `O=C(O)CC(NC(=O)CNC(=O)c1cccc(NC(=O)NCc2cccc3ccccc23)c1)c1cccnc1` (stereo not drawn) [Example 131, β-[[2-[[[3-[[[(1-naphthalenylmethyl)amino]carbonyl]amino]phenyl]carbonyl]amino]acetyl]amino]pyridine-3-propanoic acid, trifluoroacetate salt], for which the figures for the IC50 (in assay [1]; in assay [2]; in the assay with platelet rich plasma) were 3.82 nM, 1760 nM and greater than 20000 nM, respectively.
For the compound `C#C[C@H](CC(=O)O)NC(=O)CNC(=O)c1cccc(NC(N)=O)c1` [Example 40, 3S-[[2-[[[3-(aminocarbonylamino)phenyl]carbonyl]amino]acetyl]amino]-4-pentynoic acid], the IC50 is 10.3 nM in assay [1], 834 nM in assay [2] and greater than 200000 nM with platelet rich plasma.
In the same order, the values of `N=C(N)Nc1cccc(C(=O)NCC(=O)NC(CC(=O)O)c2ccc3c(c2)OCCO3)c1` (stereo not drawn) [Example 95, β-[[(2-[[[3-[(aminoiminomethyl)amino]phenyl]carbonyl]amino]acetyl]amino]-1,4-benzodioxin-6-propanoic acid, trifluoroacetate salt] are 1.43 nM, 25.4 nM and greater than 200000 nM.
With `N#C/N=C(\NCc1ccccc1)Nc1cccc(C(=O)NCC(=O)NC(CC(=O)O)c2ccccc2)c1` (stereo not drawn) [Example 136, β-[[2-[[[3-[[(cyanoimino)[(phenylmethyl)amino]methyl]amino]phenyl]carbonyl]amino]acetyl]amino]benzenepropanoic acid], the IC50 in assay [1] was 54.4 nM; in assay [2] it was 14200 nM; in the assay on platelet rich plasma, greater than 20000 nM.
In the same order, the values of `N=C(N)Nc1cccc(C(=O)NCC(=O)N[C@H](CSc2ccccc2)CC(=O)O)c1` [Example 68, 3S-[[2-[[[3-[(aminoiminomethyl)amino]phenyl]carbonyl]amino]acetyl]amino]-4-(phenylthio)butanoic acid, trifluoroacetate salt] are 5.48 nM, 125 nM and greater than 200000 nM.
For `Cc1ccc(C(CC(=O)O)NC(=O)CNC(=O)c2cccc(NC(=N)N)c2)s1` (stereo not drawn) [Example 253, β-[[2-[[[3-[(aminoiminomethyl)amino]phenyl]carbonyl]amino]acetyl]amino]-5-methylthiophene-2-propanoic acid, trifluoroacetate salt], the values for the IC50 in assay [1] and in assay [2] were 0.84 nM and 109 nM, respectively.
As for `N=C(N)Nc1cccc(C(=O)NCC(=O)NC(CC(=O)O)C2CCCCC2)c1` (racemic) [Example 229, (±)β-[[2-[[[3-[(aminoiminomethyl)amino]phenyl]carbonyl]amino]acetyl]amino]cyclohexanepropanoic acid, trifluoroacetate salt, monohydrate], the results for the IC50 in assay [1] and in assay [2] were 39.1 nM and 10600 nM, respectively.
In the same order, the values of `COC(=O)CC(NC(=O)CNC(=O)c1cccc(NC(=N)N)c1)c1ccsc1` (racemic) [Example 57, (±)methyl β-[[2-[[[3-[(aminoiminomethyl)amino]phenyl]carbonyl]amino]acetyl]amino]thiophene-3-propanoate, trifluoroacetate salt] are 1340 nM and 15300 nM.
In the same order, the values of `COc1cc(C(CC(=O)O)NC(=O)CNC(=O)c2cccc(NC(=N)N)c2)cc(Br)c1OC` (racemic) [Example 262, (±)β-[[2-[[[3-[(aminoiminomethyl)amino]phenyl]carbonyl]amino]acetyl]amino]-3-bromo-4,5-dimethoxybenzenepropanoic acid, trifluoroacetate salt] are 1.24 nM and 172 nM.
In the same order, the values of `CCN/C(=N\C)Nc1cccc(C(=O)NCC(=O)NC(CC(=O)O)c2cc(Cl)cc(Cl)c2)c1` (racemic) [Example 295, (±)3,5-dichloro-β-[[2-[[[3-[[(ethylamino)(methylimino)methyl]amino]phenyl]carbonyl]amino]acetyl]amino]benzenepropanoic acid, trifluoroacetate salt] are 144 nM and 4560 nM.
Consider `Cc1ccc(S(=O)(=O)NC(=O)Nc2cccc(C(=O)NCC(=O)NC(CC(=O)O)c3cccnc3)c2)cc1` (stereo not drawn) [Example 112, β-[[2-[[[3-[[[[(4-methylphenyl)sulfonyl]amino]carbonyl]amino]phenyl]carbonyl]amino]acetyl]amino]pyridine-3-propanoic acid, trifluoroacetate salt], for which the IC50 in assay [1] was determined as 284 nM; in assay [2], 6340 nM.
In the same order, the values of `O=C(O)CC(NC(=O)CNC(=O)c1cccc(NC2=NCCCN2)c1)c1cc(Br)cc(Br)c1` (racemic) [Example 211, (±)3,5-dibromo-β-[[2-[[[3-[(1,4,5,6-tetrahydropyrimidin-2-yl)amino]phenyl]carbonyl]amino]acetyl]amino]benzenepropanoic acid, trifluoroacetate salt] are 0.47 nM and 607 nM.
On to `N=C(N)Nc1cccc(C(=O)NCC(=O)NC(CC(=O)O)c2cccc(-c3ccccc3)c2)c1` (stereo not drawn) [Example 242, β-[[2-[[[3-[(aminoiminomethyl)amino]phenyl]carbonyl]amino]acetyl]amino][1,1′-biphenyl]-3-propanoic acid], for which the IC50 turned out to be 2.28 nM in assay [1] and 533 nM in assay [2].
Regarding `O=C(O)CC(NC(=O)CNC(=O)c1cccc(NC2=NCCS2)c1)c1cccnc1` (stereo not drawn) [Example 101, β-[[2-[[[3-[(4,5-dihydrothiazol-2-yl)amino]phenyl]carbonyl]amino]acetyl]amino]pyridine-3-propanoic acid, trifluoroacetate salt], the IC50 is 1680 nM in assay [1] and 65700 nM in assay [2].
Turning to `CCOC(=O)CC(NC(=O)CNC(=O)c1cccc(NC(=N)N)c1)c1cnc2ccccc2c1` (racemic) [Example 98, (±)ethyl β-[[2-[[[3-[(aminoiminomethyl)amino]phenyl]carbonyl]amino]acetyl]amino]-quinoline-3-propanoate, bis(trifluoroacetate)salt], the IC50 in assay [1] was found to be 146 nM; in assay [2], 500 nM.
In the same order, the values of `CC(CC(=O)O)NC(=O)CNC(=O)c1cccc(NC(=O)NCc2cc(Cl)cc(Cl)c2)c1` (centres unmarked) [Example 274, 3-[[2-[[[3-[[[[(3,5-dichlorophenyl)methyl]amino]carbonyl]amino]phenyl]carbonyl]amino]acetyl]amino]butanoic acid] are 31.1 nM and 21200 nM.
With `CCOC(=O)NC(=S)Nc1cccc(C(=O)NCC(=O)NC(CC(=O)O)c2cc(Cl)cc(Cl)c2)c1` (stereo not drawn) [Example 240, 3,5-dichloro-β-[[2-[[[3-[[[(ethoxycarbonyl)amino]thioxomethyl]amino]phenyl]carbonyl]amino]acetyl]amino]benzenepropanoic acid], the IC50 came to 49400 nM in assay [1] and 76400 nM in assay [2].
With `O=C(O)CC(NC(=O)CNC(=O)c1cccc(NC(=O)NCc2ccccc2)c1)c1cccc(Cl)c1` (stereo not drawn) [Example 270, 3-chloro-β-[[2-[[[3-[[[(phenylmethyl)amino]carbonyl]amino]phenyl]carbonyl]amino]acetyl]amino]benzenepropanoic acid, monohydrate], the IC50 in assay [1] was 5.51 nM; in assay [2], 9160 nM.
In the same order, the values of `CCOC(=O)CC(NC(=O)CNC(=O)c1cccc(NC(=O)Nc2ccccc2)c1)c1cccnc1` (stereo not drawn) [Example 107, ethyl β-[[2-[[[3-[[(phenylamino]carbonyl]amino]phenyl]carbonyl]amino]acetyl]amino]-pyridine-3-propanoate] are 6400 nM and 18700 nM.
Take `NC(=S)Nc1cccc(C(=O)NCC(=O)NC(CC(=O)O)c2cc(Cl)cc(Cl)c2)c1` (racemic) [Example 206, (±)β-[[2-[[[3-[(aminothioxomethyl)amino]phenyl]carbonyl]amino]acetyl]amino]-3,5-dichlorobenzenepropanoic acid]: the results for the IC50 in assay [1] and in assay [2] were 78.5 nM and 22000 nM, respectively.
In the same order, the values of `Cc1ccc(C)c(C(CC(=O)O)NC(=O)CNC(=O)c2cccc(NC(=N)N)c2)c1` (racemic) [Example 181, (±)β-[[2-[[[3-[(aminoiminomethyl)amino]phenyl]carbonyl]amino]acetyl]amino]-2,5-dimethylbenzenepropanoic acid, trifluoroacetate salt] are 132 nM and 22800 nM.
